Source: patent US12404241B2 (Celgene Corporation, priority 2018, dated 2025)
Where a name gives a salt, the structure may show the parent alone.

Biological target: T1, AR (Homo sapiens, UniProt P10275)
T1 construct: endogenous in cells; host or cells: VCaP cells
T1 sequence (P10275 1-920): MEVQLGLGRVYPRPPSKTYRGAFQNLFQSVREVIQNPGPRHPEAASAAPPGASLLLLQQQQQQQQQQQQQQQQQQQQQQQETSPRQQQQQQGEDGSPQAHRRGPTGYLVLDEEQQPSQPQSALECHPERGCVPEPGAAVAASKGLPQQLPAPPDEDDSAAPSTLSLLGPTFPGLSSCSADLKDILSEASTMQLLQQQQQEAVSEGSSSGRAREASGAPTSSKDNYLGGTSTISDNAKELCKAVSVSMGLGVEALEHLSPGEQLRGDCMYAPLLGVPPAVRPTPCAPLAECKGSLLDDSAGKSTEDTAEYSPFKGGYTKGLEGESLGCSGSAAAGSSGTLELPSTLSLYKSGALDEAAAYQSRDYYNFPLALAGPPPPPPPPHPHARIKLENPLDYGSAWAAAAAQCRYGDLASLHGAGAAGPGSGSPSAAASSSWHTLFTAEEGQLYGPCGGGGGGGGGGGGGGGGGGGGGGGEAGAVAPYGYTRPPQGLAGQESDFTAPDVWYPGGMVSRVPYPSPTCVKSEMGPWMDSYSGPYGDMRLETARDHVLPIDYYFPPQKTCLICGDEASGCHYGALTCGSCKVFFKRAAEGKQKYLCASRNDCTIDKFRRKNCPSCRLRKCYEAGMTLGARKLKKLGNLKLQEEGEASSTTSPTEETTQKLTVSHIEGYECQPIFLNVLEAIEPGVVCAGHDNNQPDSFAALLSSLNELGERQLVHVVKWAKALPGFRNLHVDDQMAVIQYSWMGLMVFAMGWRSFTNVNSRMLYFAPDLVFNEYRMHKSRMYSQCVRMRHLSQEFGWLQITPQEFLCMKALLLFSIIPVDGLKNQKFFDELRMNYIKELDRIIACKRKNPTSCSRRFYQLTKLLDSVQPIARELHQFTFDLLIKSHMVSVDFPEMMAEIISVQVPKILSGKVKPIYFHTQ
Test: VCAP AR Degradation Assay
Type: cell-based
Conditions: for Y (AR degradation efficiency, % of DMSO control): class symbols *; for DC50: class symbols A-C, read-out: DC50
How it was run: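 Compounds were plated as 10-point 1:3 series reaching 5 μM final, then VCaP cells were seeded onto them and incubated 24 h at 37 °C. Cells were lysed cold, and total AR was measured by sandwich ELISA relative to 0.1% DMSO wells.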

| SMILES | Y (AR degradation efficiency, % of DMSO control) | DC50 |
| --- | --- | --- |
| CCc1cc(N2C(=S)N(c3ccc(C#N)c(C(F)(F)F)c3)C(=O)C2(C)C)ccc1OCCN1CCN(CC(=O)Nc2cc(NC3CCC(=O)NC3=O)cc(F)c2F)CC1 (centres unmarked) [Example 70, 2-(4-(2-(4-(3-(4-cyano-3-(trifluoromethyl)phenyl)-5,5-dimethyl-4-oxo-2-thioxoimidazolidin-1-yl)-2-ethylphenoxy)ethyl)piperazin-1-yl)-N-(5-(2,6-dioxopiperidin-3-ylamino)-2,3-difluorophenyl)acetamide] | * (0<Y<=25%) | < 100 nM |
| CCc1cc(N2C(=S)N(c3cnc(C#N)c(C(F)(F)F)c3)C(=O)C2(C)C)ccc1OCCN1C[C@@H]2CC[C@H]1CN2CC(=O)Nc1cc(Cl)cc(NC2CCC(=O)NC2=O)c1 (stereo partly drawn) [Example 179, N-(3-chloro-5-(2,6-dioxopiperidin-3-ylamino)phenyl)-2-((1S,4S)-5-(2-(4-(3-(6-cyano-5-(trifluoromethyl)pyridin-3-yl)-5,5-dimethyl-4-oxo-2-thioxoimidazolidin-1-yl)-2-ethylphenoxy)ethyl)-2,5-diazabicyclo[2.2.2]octan-2-yl)acetamide] | ** (25%<Y<=35%) | 100 to 500 nM |
| CCc1cc(N2C(=S)N(c3ccc(C#N)c(C(F)(F)F)c3)C(=O)C2(C)C)cnc1OCCN1C[C@@H](C)N(CC(=O)Nc2cccc(NC3CCC(=O)NC3=O)c2)[C@@H](C)C1 (stereo partly drawn) [Example 216, 2-((2R,6S)-4-(2-(5-(3-(4-cyano-3-(trifluoromethyl)phenyl)-5,5-dimethyl-4-oxo-2-thioxoimidazolidin-1-yl)-3-ethylpyridin-2-yloxy)ethyl)-2,6-dimethylpiperazin-1-yl)-N-(3-(2,6-dioxopiperidin-3-ylamino)phenyl)acetamide] | ** (25%<Y<=35%) | < 100 nM |
| CCc1cc(N2C(=S)N(c3ccc(C#N)c(C(F)(F)F)c3)C(=O)C2(C)C)ccc1OCCN1C[C@@H](C)N(CC(=O)Nc2cccc(N[C@@H]3CCC(=O)NC3=O)c2)[C@@H](C)C1 [Example 286, 2-((2R,6S)-4-(2-(4-(3-(4-cyano-3-(trifluoromethyl)phenyl)-5,5-dimethyl-4-oxo-2-thioxoimidazolidin-1-yl)-2-ethylphenoxy)ethyl)-2,6-dimethylpiperazin-1-yl)-N-(3-((R)-2,6-dioxopiperidin-3-ylamino)phenyl)acetamide] | * (0<Y<=25%) | < 100 nM |
| CC1(C)C(=O)N(c2ccc(C#N)c(C(F)(F)F)c2)C(=S)N1c1ccc(OCCN2CCN(CC(=O)Nc3cc(Cl)cc(NC4CCC(=O)NC4=O)c3)CC2)c(F)c1 (centres unmarked) [Example 4, hydrochloride] | * (0<Y<=25%) | < 100 nM |
| CC(C)c1cc(N2C(=S)N(c3cnc(C#N)c(C(F)(F)F)c3)C(=O)C2(C)C)ccc1OCCN1CCN(CC(=O)Nc2cc(Cl)cc(NC3CCC(=O)NC3=O)c2)CC1 (centres unmarked) [Example 93, N-(3-chloro-5-(2,6-dioxopiperidin-3-ylamino)phenyl)-2-(4-(2-(4-(3-(6-cyano-5-(trifluoromethyl)pyridin-3-yl)-5,5-dimethyl-4-oxo-2-thioxoimidazolidin-1-yl)-2-isopropylphenoxy)ethyl)piperazin-1-yl)acetamide] | * (0<Y<=25%) | < 100 nM |
| C[C@@H]1CN(CCOc2ccc(N3C(=S)N(c4ccc(C#N)c(Cl)c4)C(=O)C3(C)C)cc2C2CC2)C[C@H](C)N1CC(=O)Nc1cc(C#N)cc(NC2CCC(=O)NC2=O)c1 (stereo partly drawn) [Example 219, 2-((2S,6R)-4-(2-(4-(3-(3-chloro-4-cyanophenyl)-5,5-dimethyl-4-oxo-2-thioxoimidazolidin-1-yl)-2-cyclopropylphenoxy)ethyl)-2,6-dimethylpiperazin-1-yl)-N-(3-cyano-5-(2,6-dioxopiperidin-3-ylamino)phenyl)acetamide] | ** (25%<Y<=35%) | < 100 nM |
| CC1(C)C(=O)N(c2cnc(C#N)c(C(F)(F)F)c2)C(=S)N1c1ccc(OCCN2CCN(CC(=O)Nc3cccc(NC4CCC(=O)NC4=O)c3)CC2)c(C2CCC2)c1 (centres unmarked) [Example 36, trifluoroacetate] | * (0<Y<=25%) | < 100 nM |
| CCc1cc(N2C(=S)N(c3ccc(C#N)c(C(F)(F)F)c3)C(=O)C2(C)C)ccc1OCCN1CCN(CC(=O)Nc2cc(Cl)cc(NC3CCC(=O)NC3=O)c2)C2(CC2)C1 (centres unmarked) [Example 101, N-(3-chloro-5-(2,6-dioxopiperidin-3-ylamino)phenyl)-2-(7-(2-(4-(3-(4-cyano-3-(trifluoromethyl)phenyl)-5,5-dimethyl-4-oxo-2-thioxoimidazolidin-1-yl)-2-ethylphenoxy)ethyl)-4,7-diazaspiro[2.5]octan-4-yl)acetamide] | * (0<Y<=25%) | < 100 nM |
| CC(F)(F)c1cc(N2C(=S)N(c3ccc(C#N)c(C(F)(F)F)c3)C(=O)C2(C)C)ccc1OCCN1CCN(CC(=O)Nc2cc(Cl)cc(NC3CCC(=O)NC3=O)c2)CC1 (centres unmarked) [Example 157, N-(3-chloro-5-(2,6-dioxopiperidin-3-ylamino)phenyl)-2-(4-(2-(4-(3-(4-cyano-3-(trifluoromethyl)phenyl)-5,5-dimethyl-4-oxo-2-thioxoimidazolidin-1-yl)-2-(1,1-difluoroethyl)phenoxy)ethyl)piperazin-1-yl)acetamide] | * (0<Y<=25%) | < 100 nM |
| N#Cc1ncc(N2C(=O)C3(CCC3)N(c3ccc(OCCN4CCN(CC(=O)Nc5cccc(NC6CCC(=O)NC6=O)c5)CC4)c(F)c3)C2=S)cc1C(F)(F)F (centres unmarked) [Example 6] | ** (25%<Y<=35%) | < 100 nM |
| CCc1c(OCCN2C[C@@H](C)N(CC(=O)Nc3cccc(NC4CCC(=O)NC4=O)c3)[C@@H](C)C2)ccc(N2C(=S)N(c3ccc(C#N)c(C(F)(F)F)c3)C(=O)C2(C)C)c1C (stereo partly drawn) [Example 270, 2-((2R,6S)-4-(2-(4-(3-(4-cyano-3-(trifluoromethyl)phenyl)-5,5-dimethyl-4-oxo-2-thioxoimidazolidin-1-yl)-2-ethyl-3-methylphenoxy)ethyl)-2,6-dimethylpiperazin-1-yl)-N-(3-(2,6-dioxopiperidin-3-ylamino)phenyl)acetamide] | ** (25%<Y<=35%) | 100 to 500 nM |
| CC(C)c1cc(N2C(=S)N(c3cnc(C#N)c(C(F)(F)F)c3)C(=O)C2(C)C)ccc1OCCN1CCN(CC(=O)Nc2cccc(NC3CCC(=O)NC3=O)c2)[C@H](C)C1 (stereo partly drawn) [Example 163, 2-((R)-4-(2-(4-(3-(6-cyano-5-(trifluoromethyl)pyridin-3-yl)-5,5-dimethyl-4-oxo-2-thioxoimidazolidin-1-yl)-2-isopropylphenoxy)ethyl)-2-methylpiperazin-1-yl)-N-(3-(2,6-dioxopiperidin-3-ylamino)phenyl)acetamide] | * (0<Y<=25%) | 100 to 500 nM |
| CCc1cc(N2C(=S)N(c3cnc(C#N)c(C(F)(F)F)c3)C(=O)C2(C)C)ccc1OCCN1C[C@@H](C)N(CC(=O)Nc2cccc(NC3CCC(=O)NC3=O)c2)[C@@H](C)C1 (stereo partly drawn) [Example 151, 2-((2R,6S)-4-(2-(4-(3-(6-cyano-5-(trifluoromethyl)pyridin-3-yl)-5,5-dimethyl-4-oxo-2-thioxoimidazolidin-1-yl)-2-ethylphenoxy)ethyl)-2,6-dimethylpiperazin-1-yl)-N-(3-(2,6-dioxopiperidin-3-ylamino)phenyl)acetamide] | * (0<Y<=25%) | < 100 nM |
| CC1(C)C(=O)N(c2cnc(C#N)c(C(F)(F)F)c2)C(=S)N1c1ccc(OCCN2CCN(CC(=O)Nc3cc(Cl)cc(NC4CCC(=O)NC4=O)c3)CC2)c(CC(F)F)c1 (centres unmarked) [Example 67, N-(3-chloro-5-(2,6-dioxopiperidin-3-ylamino)phenyl)-2-(4-(2-(4-(3-(6-cyano-5-(trifluoromethyl)pyridin-3-yl)-5,5-dimethyl-4-oxo-2-thioxoimidazolidin-1-yl)-2-(2,2-difluoroethyl)phenoxy)ethyl)piperazin-1-yl)acetamide] | * (0<Y<=25%) | < 100 nM |
| CC[C@@H]1CN(CCOc2ccc(N3C(=S)N(c4cnc(C#N)c(C(F)(F)F)c4)C(=O)C34CCC4)cc2C2CC2)CCN1CC(=O)Nc1cccc(NC2CCC(=O)NC2=O)c1 (stereo partly drawn) [Example 262, 2-((R)-4-(2-(4-(7-(6-cyano-5-(trifluoromethyl)pyridin-3-yl)-8-oxo-6-thioxo-5,7-diazaspiro[3.4]octan-5-yl)-2-cyclopropylphenoxy)ethyl)-2-ethylpiperazin-1-yl)-N-(3-(2,6-dioxopiperidin-3-ylamino)phenyl)acetamide] | * (0<Y<=25%) | 100 to 500 nM |
